Source: patent US8999990B2, “Inhibitors of the renal outer medullary potassium channel” (Merck Sharp & Dohme Corp., priority 2011, dated 2015)

Target: T1, hROMK1 (Kir1.1) (Homo sapiens, UniProt P48048)
T1 construct: expressed in transfected cells
T1 sequence (P48048 1-391): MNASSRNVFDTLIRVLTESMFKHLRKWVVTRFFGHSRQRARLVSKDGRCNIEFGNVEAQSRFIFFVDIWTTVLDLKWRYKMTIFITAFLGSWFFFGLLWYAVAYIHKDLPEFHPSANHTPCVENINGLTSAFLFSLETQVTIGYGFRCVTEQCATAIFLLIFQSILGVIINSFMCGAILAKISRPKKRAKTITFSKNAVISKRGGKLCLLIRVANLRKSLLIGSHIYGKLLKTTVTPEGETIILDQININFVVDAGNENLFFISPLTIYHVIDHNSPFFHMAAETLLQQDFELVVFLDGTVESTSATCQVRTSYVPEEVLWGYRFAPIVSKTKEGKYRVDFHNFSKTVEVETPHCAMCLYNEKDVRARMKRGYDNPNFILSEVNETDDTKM
Experiment: 86Rb+ Efflux Assay
Type: cell-based
Details: CHO-DHFR- cells stably expressing hROMK1; 35 min incubation
Description: Several assays may be used to measure functional inhibition of the ROMK channel by compounds of the instant invention. One assay that was used to test the activity of compounds in the Examples is the functional ^86Rb^+ efflux assay described below, that measures the ability of ROMK to permeate ^86Rb^+, in the absence or presence of test compound. Under control conditions, cells loaded with ^86Rb^+ and incubated in Rb^+-free medium display a time-dependent efflux of the isotope, the rate of which depends on number of functional channels. When cells are incubated in the presence of a channel inhibitor, efflux of ^86Rb^+ is prevented in a concentration-dependent manner, and IC50 values of inhibition by compounds can be accurately determined. This assay has been established with cell lines expressing either human, rat or dog ROMK channels, and can operate in 96- or 384-well format. Importantly, the human, rat, and dog ^86Rb^+ efflux assays can be carried out in the presence of up to 100% serum allowing, therefore, an accurate estimation of the effect of protein binding on the inhibitory activity of compounds of interest. Another ROMK functional assay used to test the activity of compounds in the Examples (described below) makes use of the ability of thallium to permeate through open ROMK channels and increase the fluorescence of a dye previously loaded into the cells. Under control conditions, cells loaded with dye and exposed to thallium-containing medium display a time-dependent increase in fluorescence, the rate of which depends on number of functional channels. When cells are incubated in the presence of a channel inhibitor, the increase in fluorescence is attenuated in a concentration-dependent manner, and IC50 values of inhibition by compounds can be accurately determined. This assay has been established with cell lines expressing either human, or rat ROMK channels, and operates in 384-well format.
CHO-DHFR-cells stably expressing hROMK1 (Kir1.1) are grown at 37° C. in a 10% CO2 humidified incubator in Iscove's Modified Dulbecco's Medium (Gibco 12440) supplemented with HT Supplement, Penicillin/Streptomycin/Glutamine, G418 (500 μg/ml) and 10% FBS. Cells are seeded in Sterile and Tissue Culture Treated Packard CulturPlate White Opaque Microplates at a concentration of 5.0E5-7.0E5 cells/ml-PerkinElmer 6005680 (96-well); Corning 3707 (384 well) in complete media containing 1.5 μCi/ml Rubidium-86. Cells are incubated in 37° C.-10% CO2 incubator overnight. On the day of the experiment, the media is removed and cells are washed with low K assay buffer. ^86Rb^+ efflux is initiated after addition of assay buffer±test compound followed by 35 min incubation at room temperature. ROMK-sensitive component of efflux is defined in the presence of 10 mM BaCl2. Assay buffer is removed and transferred to a plate and cells are solubilized in the presence of SDS. Radioactivity associated with assay and cell plate is determined.
• 1. Remove cell media and wash cells with low K assay buffer (126.9 mM NaCl, 4.6 mM KCl, 2 mM CaCl2, 1 mM MgCl2, 10 mM Hepes/NaOH; pH 7.4) • 200 μl for 96-well plate; 70 μl for 384-well plate • 2. Add assay buffer (121.5 mM NaCl, 10 mM KCl, 2 mM CaCl2, 1 mM MgCl2, 10 mM Hepes/NaOH; pH 7.4)±test compound to cells • 100 μl for 96-well plate; 50 μl for 384-well plate • 3. Incubate at ambient temperature (22-24° C.) for 35 min • 4. Remove assay buffer add it to a 96- or 384-well plate containing Microscint-20 • 96-well Plate: 100 μl buffer, 170 μl MicroScint 20 (for TopCount) • 384-well plate: 20 μl buffer, 50 μl Optiphiase (for MicroLux) • 5. Completely remove remaining assay buffer from cell plate • 6. Solubilize cells with 1% SDS; than add MicroScint or Optiphase • 96-well Plate: 30 μl SDS, 170 μl MicroScint 20 (for TopCount) • 384-well plate: 20 μl SDS, 50 μl Optiphiase (for MicroLux) • 7. Seal both cell and supernatant plates and count Data Calculation— […]

Row | SMILES | IC50 [nM]
1 | N#Cc1cc(CCN2CCN(CC(F)c3ccc4c(c3)COC4=O)CC2=O)ccc1F (racemic) [Example 39, 2-Fluoro-5-(2-{4-[2-fluoro-2-(1-oxo-1,3-dihydro-2-benzofuran-5-yl)ethyl]-2-oxopiperazin-1-yl}ethyl)benzonitrile] | 910
2 | N#Cc1ccc2c(c1)CCC(N1CCN(CCc3ccc([N+](=O)[O-])cc3)CC1=O)C2 (racemic) [Example 23, 6-{4-[2-(4-Nitrophenyl)ethyl]-2-oxopiperazin-1-yl}-5,6,7,8-tetrahydronaphthalene-2-carbonitrile] | 60
3 | O=C1CN(CCc2ccc([N+](=O)[O-])c(C(F)(F)F)c2)CCN1CCc1ccc([N+](=O)[O-])cc1 [Example 3, 1-[2-(4-Nitrophenyl)ethyl]-4-{2-[4-nitro-3-(trifluoromethyl)phenyl]ethyl}piperazin-2-one] | 740
4 | N#Cc1ccc2c(c1)CCC(N1CCN(CCc3ccc4c(c3)COC4=O)CC1=O)C2 (racemic) [Example 26, 6-{2-Oxo-4-[2-(1-oxo-1,3-dihydro-2-benzofuran-5-yl)ethyl]piperazin-1-yl}-5,6,7,8-tetrahydronaphthalene-2-carbonitrile] | 30
5 | N#Cc1ccc(CCN2CCN(CCc3ccc([N+](=O)[O-])cc3)C(=O)C2)cc1 [Example 5, 4-(2-{4-[2-(4-Nitrophenyl)ethyl]-3-oxopiperazin-1-yl}ethyl)benzonitrile] | 120
6 | Cc1c(CCN2CCN(C3CCc4cc(C#N)ccc4C3)C(=O)C2)ccc2c1COC2=O (racemic) [Example 30, 6-{4-[2-(4-Methyl-1-oxo-1,3-dihydro-2-benzofuran-5-yl)ethyl]-2-oxopiperazin-1-yl}-5,6,7,8-tetrahydronaphthalene-2-carbonitrile] | 310
7 | O=C1CN(CCc2ccc([N+](=O)[O-])cc2F)CCN1CCc1ccc([N+](=O)[O-])cc1 [Example 12, 4-[2-(2-Fluoro-4-nitrophenyl)ethyl]-1-[2-(4-nitrophenyl)ethyl]piperazin-2-one] | 140
8 | N#Cc1c(F)ccc2c1CCC2CN1CCN(CCc2ccc3c(c2)COC3=O)CC1=O (stereo not drawn) [Example 34, 5-Fluoro-1-({2-oxo-4-[2-(1-oxo-1,3-dihydro-2-benzofuran-5-yl)ethyl]piperazin-1-yl}methyl)-2,3-dihydro-1H-indene-4-carbonitrile] | 360
9 | N#Cc1ccc2c(c1)CC(N1CCN(CCc3ccc4c(c3)COC4=O)CC1=O)CC2 (racemic) [Example 37, 7-{2-Oxo-4-[2-(1-oxo-1,3-dihydro-2-benzofuran-5-yl)ethyl]piperazin-1-yl}-5,6,7,8-tetrahydronaphthalene-2-carbonitrile] | 280
10 | O=C1CN(CCc2ccc([N+](=O)[O-])cc2C(F)(F)F)CCN1CCc1ccc([N+](=O)[O-])cc1 [Example 4, 1-[2-(4-Nitrophenyl)ethyl]-4-{2-[4-nitro-2-(trifluoromethyl)phenyl]ethyl}piperazin-2-one] | 310
11 | Cc1cc([N+](=O)[O-])ccc1CCN1CCN(CCc2ccc([N+](=O)[O-])cc2)C(=O)C1 [Example 19, 4-[2-(2-Methyl-4-nitrophenyl)ethyl]-1-[2-(4-nitrophenyl)ethyl]piperazin-2-one] | 50
12 | N#Cc1ccc2c(c1)CCC(N1CCN(C3CCc4cc(C#N)ccc4C3)C(=O)C1)C2 (stereo not drawn) [Example 15, 6,6′-(2-Oxopiperazine-1,4-diyl)di(5,6,7,8-tetrahydronaphthalene-2-carbonitrile)] | 51
13 | O=C1CN(CCc2ccc([N+](=O)[O-])cc2)CCN1CCc1ccc2nonc2c1 [Example 24, 1-[2-(2,1,3-Benzoxadiazol-5-yl)ethyl]-4-[2-(4-nitrophenyl)ethyl]piperazin-2-one] | 550

The remaining molecules from weak to strong by IC50, led by results:

Row | IC50 [nM] | SMILES
14 | 820 | N#Cc1ccc2c(c1)CCC(N1CCN(CCc3ccc4nonc4c3)C(=O)C1)C2 (racemic) [Example 14, 6-{4-[2-(2,1,3-Benzoxadiazol-5-yl)ethyl]-3-oxopiperazin-1-yl}-5,6,7,8-tetrahydronaphthalene-2-carbonitrile]
15 | 720 | N#Cc1ccc2c(c1)CCC(N1CCN(C(=O)Cc3ccc(-n4cnnn4)cc3)CC1=O)C2 (racemic) [Example 56, 6-(2-Oxo-4-{[4-(1H-tetrazol-1-yl)phenyl]acetyl}piperazin-1-yl)-5,6,7,8-tetrahydronaphthalene-2-carbonitrile]
16 | 380 | N#Cc1ccc2c(c1)CC(CN1CCN(CCc3ccc4c(c3)COC4=O)CC1=O)C2 (racemic) [Example 41, 2-({2-Oxo-4-[2-(1-oxo-1,3-dihydro-2-benzofuran-5-yl)ethyl]piperazin-1-yl}methyl)-2,3-dihydro-1H-indene-5-carbonitrile]
17 | 310 | N#Cc1ccc2c(c1)CCC(N1CCN(CCc3ccc4nonc4c3)CC1=O)C2 (racemic) [Example 13, 6-{4-[2-(2,1,3-Benzoxadiazol-5-yl)ethyl]-2-oxopiperazin-1-yl}-5,6,7,8-tetrahydronaphthalene-2-carbonitrile]
18 | 300 | N#Cc1ccc2c(c1)CCC(N1CCN(CCc3ccc4c(c3)CCOC4=O)CC1=O)C2 (racemic) [Example 42, 6-{2-Oxo-4-[2-(1-oxo-3,4-dihydro-1H-isochromen-6-yl)ethyl]piperazin-1-yl}-5,6,7,8-tetrahydronaphthalene-2-carbonitrile]
19 | 170 | O=C1CN(CCc2ccc([N+](=O)[O-])c(F)c2)CCN1CCc1ccc2nonc2c1 [Example 20, 1-[2-(2,1,3-Benzoxadiazol-5-yl)ethyl]-4-[2-(3-fluoro-4-nitrophenyl)ethyl]piperazin-2-one]
20 | 140 | COc1cc([N+](=O)[O-])ccc1CCN1CCN(CCc2ccc([N+](=O)[O-])cc2)C(=O)C1 [Example 11, 4-[2-(2-Methoxy-4-nitrophenyl)ethyl]-1-[2-(4-nitrophenyl)ethyl]piperazin-2-one]
21 | 130 | N#Cc1ccc2c(c1)CC(N1CCN(CCc3ccc4c(c3)COC4=O)CC1=O)C2 (racemic) [Example 44, 2-{2-Oxo-4-[2-(1-oxo-1,3-dihydro-2-benzofuran-5-yl)ethyl]piperazin-1-yl}-2,3-dihydro-1H-indene-5-carbonitrile]
22 | 120 | N#Cc1ccc2c(c1)CCC2CN1CCN(CCc2ccc3c(c2)COC3=O)CC1=O (racemic) [Example 40, 1-({2-Oxo-4-[2-(1-oxo-1,3-dihydro-2-benzofuran-5-yl)ethyl]piperazin-1-yl}methyl)-2,3-dihydro-1H-indene-5-carbonitrile]
23 | 100 | N#Cc1ccc2c(c1)CCC(N1CCN([C@H]3CCc4cc(C#N)ccc4C3)C(=O)C1)C2 (stereo partly drawn) [Example 16, (6S)-6,6′-(2-oxopiperazine-1,4-diyl)-di-(5,6,7,8-tetrahydronaphthalene-2-carbonitrile)]
24 | 70 | O=C1CN(CCc2ccc([N+](=O)[O-])cc2)CCN1CCc1ccc([N+](=O)[O-])cc1 [Example 1, 1,4-bis[2-(4-nitrophenyl)ethyl]piperazin-2-one]
